Test results from ChEMBL document CHEMBL5726143, “Aminoindazole derivatives as sodium channel inhibitors” (2019).

Target: Sodium channel protein type 9 subunit alpha (Homo sapiens, UniProt Q15858)
Test: In Vitro Electrophysiology: Electrophysiological studies are performed with an IonWorks Quattro (Molecular Devices Corp.) automated patch-clamp electrophysiology platform as described by (Schroeder K et al. Journal of Biomolecular Screening 2003, 8 (1), 50-64). Buffers for the experiments have the following composition (mM): Internal solution; K-gluconate 100, KCl 40, MgCl2 3.2, HEPES 5, EGTA 3, pH 7.3. To this amphotericin B is added to final concentration of 0.1 mg/ml to generate access solution. External solution; Dulbecco's Phosphate buffered saline (D-PBS) NaCl 137.93, KCl 2.67, KH2PO4 1.47, Na2HPO4 8.06, CaCl2 0.90, MgCl2 0.49. Prior to the experiment the cells expressing the voltage-gated ion channel of interest are detached from the tissue culture flasks, centrifuged and resuspended in D-PBS. Compounds are prepared and serially diluted in DMSO and finally diluted 1:100 in D-PBS. Cells are exposed to compounds through the pipetting system integrated into the platform and the voltage-gated ion channel of interest is activated with specific voltage stimulation protocols. The following voltage stimulation protocol is used for testing compounds against the voltage-gated sodium channel Nav1.7; from a holding potential of −100 mV a train of eight 60 ms depolarising steps to −20 mV at a frequency of 14 Hz are employed followed by a further step to −20 mV for 2000 ms. […]

Sodium channel protein type 9 subunit alpha, sequence (Q15858 whole entry): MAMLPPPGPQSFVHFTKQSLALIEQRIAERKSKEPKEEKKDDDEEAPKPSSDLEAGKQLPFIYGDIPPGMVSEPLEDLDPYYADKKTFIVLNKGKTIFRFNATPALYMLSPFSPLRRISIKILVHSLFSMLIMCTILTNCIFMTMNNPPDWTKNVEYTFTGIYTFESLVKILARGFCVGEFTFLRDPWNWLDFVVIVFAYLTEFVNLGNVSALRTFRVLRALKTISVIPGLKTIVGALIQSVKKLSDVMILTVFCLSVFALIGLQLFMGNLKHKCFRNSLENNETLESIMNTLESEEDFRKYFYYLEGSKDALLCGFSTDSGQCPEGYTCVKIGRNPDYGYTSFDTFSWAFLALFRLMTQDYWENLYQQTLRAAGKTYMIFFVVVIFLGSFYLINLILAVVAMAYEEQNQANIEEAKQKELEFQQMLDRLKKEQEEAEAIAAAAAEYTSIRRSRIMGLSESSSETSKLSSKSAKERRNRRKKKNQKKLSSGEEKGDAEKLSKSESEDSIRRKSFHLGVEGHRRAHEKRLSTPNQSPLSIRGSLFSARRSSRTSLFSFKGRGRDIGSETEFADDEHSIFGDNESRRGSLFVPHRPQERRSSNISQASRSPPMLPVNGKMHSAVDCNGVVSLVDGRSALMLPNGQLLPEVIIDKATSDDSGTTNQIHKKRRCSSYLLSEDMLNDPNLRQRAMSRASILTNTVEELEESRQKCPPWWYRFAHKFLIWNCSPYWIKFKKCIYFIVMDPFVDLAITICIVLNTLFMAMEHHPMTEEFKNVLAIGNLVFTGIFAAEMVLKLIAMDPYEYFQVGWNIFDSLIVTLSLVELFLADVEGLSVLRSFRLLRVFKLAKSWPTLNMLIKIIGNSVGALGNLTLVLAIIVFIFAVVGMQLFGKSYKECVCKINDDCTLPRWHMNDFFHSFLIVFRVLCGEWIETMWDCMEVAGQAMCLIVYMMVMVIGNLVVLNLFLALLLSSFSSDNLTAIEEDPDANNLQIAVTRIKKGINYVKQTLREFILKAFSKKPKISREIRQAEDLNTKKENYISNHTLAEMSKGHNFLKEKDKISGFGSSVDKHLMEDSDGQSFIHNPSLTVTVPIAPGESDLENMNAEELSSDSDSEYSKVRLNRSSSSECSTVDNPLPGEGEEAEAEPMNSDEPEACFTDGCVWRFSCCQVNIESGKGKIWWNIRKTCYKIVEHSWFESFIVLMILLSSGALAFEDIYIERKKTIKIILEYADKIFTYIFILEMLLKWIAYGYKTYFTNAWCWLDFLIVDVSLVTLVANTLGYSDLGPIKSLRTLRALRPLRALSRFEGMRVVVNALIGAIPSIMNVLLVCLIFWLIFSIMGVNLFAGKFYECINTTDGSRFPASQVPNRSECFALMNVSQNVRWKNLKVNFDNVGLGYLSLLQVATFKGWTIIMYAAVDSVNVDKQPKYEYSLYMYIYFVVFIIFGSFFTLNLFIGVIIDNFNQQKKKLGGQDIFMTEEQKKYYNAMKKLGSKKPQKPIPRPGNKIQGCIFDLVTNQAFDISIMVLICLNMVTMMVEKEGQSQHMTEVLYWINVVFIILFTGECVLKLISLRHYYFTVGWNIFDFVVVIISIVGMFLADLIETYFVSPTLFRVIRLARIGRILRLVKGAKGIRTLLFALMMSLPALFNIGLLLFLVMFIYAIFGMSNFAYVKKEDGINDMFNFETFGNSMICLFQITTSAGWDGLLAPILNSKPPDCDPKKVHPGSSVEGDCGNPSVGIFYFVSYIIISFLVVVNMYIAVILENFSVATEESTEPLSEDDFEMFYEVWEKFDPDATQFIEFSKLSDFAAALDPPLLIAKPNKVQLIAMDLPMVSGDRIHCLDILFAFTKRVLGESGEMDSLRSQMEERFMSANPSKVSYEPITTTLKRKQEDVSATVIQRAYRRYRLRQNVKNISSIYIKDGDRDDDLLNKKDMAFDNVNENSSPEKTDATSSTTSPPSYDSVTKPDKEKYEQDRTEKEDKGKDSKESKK

COc1cccc(-c2ccc3c(N)nn(C)c3c2)c1OCC(F)F
IC50: 1.07 µM

COc1ccc(OCC(F)(F)C(F)(F)F)c(-c2ccc3c(N)nn(C)c3c2)c1
IC50: 1.23 µM
